This is an account of results in patent US20230081426A1, “COMPOUNDS AND METHODS FOR KRAS MODULATION AND INDICATIONS THEREFOR” (Plexxikon Inc., priority 2020, published 2023).

The target in test [1] is T1, G12D-mutant human KRAS (amino acid residues 1-188) (Homo sapiens, UniProt P01116, G12D).
T1 construct: G12D or G12C-mutant human KRAS (amino acid residues 1-188) with FLAG tag; made in house; host or cells: E. coli
Nature of the test: KRAS Binding Disruption Assay (AlphaScreen; biotinylated KRpep-2d analogue or RAF1-RBD), G12D. Conditions: KRAS G12D; geometric mean; read-out: KRAS GMean IC50 (uM) MUTATION: G12D. The procedure, abridged: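 Mutant KRAS (5-20 nM) incubated 1 h at 25° C with test compound and 5-20 nM biotinylated KRpep-2d analogue or RAF1-RBD in 20 mM HEPES pH 7.5, 100 mM NaCl, 5 mM MgCl2, 0.01% Tween-20, 0.01% BSA.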
A general note: Alpha assays give light when donor and acceptor beads are brought close together.

For test [2], the target named is T2, G12V-mutant human KRAS (amino acid residues 1-188) (Homo sapiens, UniProt P01116, G12V).
T2 construct: G12V-mutant human KRAS (amino acid residues 1-188) with FLAG tag was purified from E. coli; made in house; host or cells: E. coli
Nature of the test: KRAS Binding Competition Assay (AlphaScreen; biotinylated KRpep-2d analogue), G12V. Conditions: geometric mean, read-out: KRAS GMean IC50 (uM) MUTATION: G12V.

As usually defined, the IC50 is the concentration that inhibits the measured activity by half. For the molecule `CCN1CCC(NC(=O)N2C[C@H]3CC[C@@H](C2)N3c2nc(OC[C@@H]3CCCN3C)nc3cc(-c4cc(O)cc5ccccc45)ccc23)C1` (stereo partly drawn) [P-0215, (1R,5S)-N-(1-ethylpyrrolidin-3-yl)-8-(7-(3-hydroxynaphthalen-1-yl)-2-(((S)-1-methylpyrrolidin-2-yl)methoxy)quinazolin-4-yl)-3,8-diazabicyclo[3.2.1]octane-3-carboxamide], the concentration for half-maximal inhibition (IC50) in test [1] is 10 to 100 µM; in test [2], 100 to 1000 µM.
Turning to `CN1CCC[C@H]1COc1nc(N2[C@@H]3CC[C@H]2CN(C(=O)NCc2ccccn2)C3)c2ccc(-c3cc(O)cc4ccccc34)cc2n1` [P-0216, (1R,5S)-8-(7-(3-hydroxynaphthalen-1-yl)-2-(((S)-1-methylpyrrolidin-2-yl)methoxy)quinazolin-4-yl)-N-(pyridin-2-ylmethyl)-3,8-diazabicyclo[3.2.1]octane-3-carboxamide], the IC50 in test [1] and in test [2] was 10 to 100 µM throughout.
With `CN1CCC[C@H]1COc1nc(N2[C@@H]3CC[C@H]2CN(C(=O)C(N)=O)C3)c2ccc(-c3cc(O)cc4ccccc34)cc2n1` [P-0217, 2-((1R,5S)-8-(7-(3-hydroxynaphthalen-1-yl)-2-(((S)-1-methylpyrrolidin-2-yl)methoxy)quinazolin-4-yl)-3,8-diazabicyclo[3.2.1]octan-3-yl)-2-oxoacetamide], the IC50 in test [1] and in test [2] was 10 to 100 µM throughout.
With `CN1CCC[C@H]1COc1nc(N2[C@@H]3CC[C@H]2CN(C(=O)CCC(N)=O)C3)c2ccc(-c3cc(O)cc4ccccc34)cc2n1` [P-0218, 4-((1R,5S)-8-(7-(3-hydroxynaphthalen-1-yl)-2-(((S)-1-methylpyrrolidin-2-yl)methoxy)quinazolin-4-yl)-3,8-diazabicyclo[3.2.1]octan-3-yl)-4-oxobutanamide], the IC50 in test [1] and in test [2] was 10 to 100 µM each time.
With `CN1CCC[C@H]1COc1nc(N2[C@@H]3CC[C@H]2CN(C(=O)C(O)CO)C3)c2ccc(-c3cc(O)cc4ccccc34)cc2n1` (stereo partly drawn) [P-0219, 2,3-dihydroxy-1-((1R,5S)-8-(7-(3-hydroxynaphthalen-1-yl)-2-(((S)-1-methylpyrrolidin-2-yl)methoxy)quinazolin-4-yl)-3,8-diazabicyclo[3.2.1]octan-3-yl)propan-1-one], the IC50 in test [1] and in test [2] was 10 to 100 µM in each case.
Regarding `C[C@@H](O)C(=O)N1C[C@H]2CC[C@@H](C1)N2c1nc(OC[C@@H]2CCCN2C)nc2cc(-c3cc(O)cc4ccccc34)ccc12` [P-0220, (R)-2-hydroxy-1-((1R,5S)-8-(7-(3-hydroxynaphthalen-1-yl)-2-(((S)-1-methylpyrrolidin-2-yl)methoxy)quinazolin-4-yl)-3,8-diazabicyclo[3.2.1]octan-3-yl)propan-1-one], the IC50 in test [1] is 10 to 100 µM; in test [2], 100 to 1000 µM.
Taken in the same sequence, the figures for `C[C@H](O)C(=O)N1C[C@H]2CC[C@@H](C1)N2c1nc(OC[C@@H]2CCCN2C)nc2cc(-c3cc(O)cc4ccccc34)ccc12` [P-0221, (S)-2-hydroxy-1-((1R,5S)-8-(7-(3-hydroxynaphthalen-1-yl)-2-(((S)-1-methylpyrrolidin-2-yl)methoxy)quinazolin-4-yl)-3,8-diazabicyclo[3.2.1]octan-3-yl)propan-1-one] were 10 to 100 µM and 10 to 100 µM.
`CN1CCC[C@H]1COc1nc(N2[C@@H]3CC[C@H]2CN(C(=O)C2CCC(=O)N2)C3)c2ccc(-c3cc(O)cc4ccccc34)cc2n1` (stereo partly drawn) [P-0222, 5-((1R,5S)-8-(7-(3-hydroxynaphthalen-1-yl)-2-(((S)-1-methylpyrrolidin-2-yl)methoxy)quinazolin-4-yl)-3,8-diazabicyclo[3.2.1]octane-3-carbonyl)pyrrolidin-2-one]: the results for the IC50 in test [1] and in test [2] were 10 to 100 µM and 100 to 1000 µM, respectively.
Regarding `CN1CCC[C@H]1COc1nc(N2[C@@H]3CC[C@H]2CN(C(=O)[C@@H](N)CO)C3)c2ccc(-c3cc(O)cc4ccccc34)cc2n1` [P-0223, (S)-2-amino-3-hydroxy-1-((1R,5S)-8-(7-(3-hydroxynaphthalen-1-yl)-2-(((S)-1-methylpyrrolidin-2-yl)methoxy)quinazolin-4-yl)-3,8-diazabicyclo[3.2.1]octan-3-yl)propan-1-one], the concentration for half-maximal inhibition (IC50) in test [1] and in test [2] was 10 to 100 µM in each case.
Regarding `CN1CCC[C@H]1COc1nc(N2[C@@H]3CC[C@H]2CN(C(=O)c2ncc[nH]2)C3)c2ccc(-c3cc(O)cc4ccccc34)cc2n1` [P-0224, ((1R,5S)-8-(7-(3-hydroxynaphthalen-1-yl)-2-(((S)-1-methylpyrrolidin-2-yl)methoxy)quinazolin-4-yl)-3,8-diazabicyclo[3.2.1]octan-3-yl)(1H-imidazol-2-yl)methanone], the concentration for half-maximal inhibition (IC50) in test [1] lay in the range of 10 to 100 µM; in test [2], 0.0001 to 10 µM.
With `CN1CCC[C@H]1COc1nc(N2[C@@H]3CC[C@H]2CN(CC(=O)Nc2ccccn2)C3)c2ccc(-c3cc(O)cc4ccccc34)cc2n1` [P-0225, 2-((1R,5S)-8-(7-(3-hydroxynaphthalen-1-yl)-2-(((S)-1-methylpyrrolidin-2-yl)methoxy)quinazolin-4-yl)-3,8-diazabicyclo[3.2.1]octan-3-yl)-N-(pyridin-2-yl)acetamide], the IC50 in test [1] and in test [2] was 10 to 100 µM throughout.
As for `CN1CCC[C@H]1COc1nc(N2[C@@H]3CC[C@H]2CN(C2CNC2)C3)c2ccc(-c3cc(O)cc4ccccc34)cc2n1` [P-0226, 4-(4-((1R,5S)-3-(azetidin-3-yl)-3,8-diazabicyclo[3.2.1]octan-8-yl)-2-(((S)-1-methylpyrrolidin-2-yl)methoxy)quinazolin-7-yl)naphthalen-2-ol], the IC50 in test [1] and in test [2] was 100 to 1000 µM each time.
Turning to `CN1CCC[C@H]1COc1nc(N2[C@@H]3CC[C@H]2CN(C(=O)CC(N)=O)C3)c2ccc(-c3cc(O)cc4ccccc34)cc2n1` [P-0227, 3-((1R,5S)-8-(7-(3-hydroxynaphthalen-1-yl)-2-(((S)-1-methylpyrrolidin-2-yl)methoxy)quinazolin-4-yl)-3,8-diazabicyclo[3.2.1]octan-3-yl)-3-oxopropanamide], the IC50 in test [1] was in the range of 10 to 100 µM; in test [2], 100 to 1000 µM.
Consider `CN1CCC[C@H]1COc1nc(N2[C@@H]3CC[C@H]2CN(C(=O)Cc2cnn(C)c2)C3)c2ccc(-c3cc(O)cc4ccccc34)cc2n1` [P-0228, 1-((1R,5S)-8-(7-(3-hydroxynaphthalen-1-yl)-2-(((S)-1-methylpyrrolidin-2-yl)methoxy)quinazolin-4-yl)-3,8-diazabicyclo[3.2.1]octan-3-yl)-2-(1-methyl-1H-pyrazol-4-yl)ethan-1-one], for which the IC50 in test [1] lay in the range of 10 to 100 µM; in test [2] it was 100 to 1000 µM.
The like results for `CN1CCC[C@H]1COc1nc(N2[C@@H]3CC[C@H]2CN(C(=O)C(=O)Nc2ccccn2)C3)c2ccc(-c3cc(O)cc4ccccc34)cc2n1` [P-0229, 2-((1R,5S)-8-(7-(3-hydroxynaphthalen-1-yl)-2-(((S)-1-methylpyrrolidin-2-yl)methoxy)quinazolin-4-yl)-3,8-diazabicyclo[3.2.1]octan-3-yl)-2-oxo-N-(pyridin-2-yl)acetamide] were, in that order, 10 to 100 µM and 10 to 100 µM.
For the molecule `CN1CCC[C@H]1COc1nc(N2[C@@H]3CC[C@H]2CN(C(=O)c2ncn[nH]2)C3)c2ccc(-c3cc(O)cc4ccccc34)cc2n1` [P-0230, ((1R,5S)-8-(7-(3-hydroxynaphthalen-1-yl)-2-(((S)-1-methylpyrrolidin-2-yl)methoxy)quinazolin-4-yl)-3,8-diazabicyclo[3.2.1]octan-3-yl)(1H-1,2,4-triazol-5-yl)methanone], the IC50 in test [1] and in test [2] was 10 to 100 µM throughout.
